Tested on: desired test plant species
Assay: Foliar-applied postemergence herbicidal activity in direct seeded rice (Table 6)
Assay type: in vivo
Settings: 21 DAA
Excerpt: Seeds or nutlets of the desired test plant species were planted in a soil matrix prepared by mixing a loam soil (43 percent silt, 19 percent clay, and 38 percent sand, with a pH of about 8.1 and an organic matter content of about 1.5 percent) and river sand in an 80 to 20 ratio. The soil matrix was contained in plastic pots with a surface area of 139.7 cm^2. When required to ensure good germination and healthy plants, a fungicide treatment and/or other chemical or physical treatment was applied. The plants were grown for 10-17 d in a greenhouse with an approximate 14-h photoperiod which was maintained at about 29° C. during the day and 26° C. during the night. Nutrients and water were added on a regular basis and supplemental lighting was provided with overhead metal halide 1000-Watt lamps as necessary. The plants were employed for testing when they reached the second or third true leaf stage. Treatments consisted of compounds 45, 34, and 66. Weighed amounts of technical compounds were placed in individual 25 mL glass vials and dissolved in 8 mL of 97:3 v/v acetone-DMSO to obtain stock solutions. […] The spray application solutions were prepared by removing 4 mL of the stock solution and diluting with 4 mL of 97:3 v/v acetone-DMSO and continued serial dilution to obtain 1⁄2×, 1⁄4×, 1⁄8×, and 1/16× rates of the high rate. Spray solutions were diluted to the appropriate final concentrations with the addition of 8 mL of an aqueous mixture of 1.875% (v/v) Agri-dex crop oil concentrate. The final 12-mL spray solutions each contained 1.25% (v/v) Agri-dex crop oil concentrate, 32.3% acetone, and 1.0% DMSO. Compound requirements are based upon a 12 mL application volume at a rate of 187 L/ha. Spray solutions were applied to the plant material with an overhead Mandel track sprayer equipped with […] nozzles calibrated to deliver 187 L/ha over an application area of 0.503 square meters (m^2) at a spray height of 18 inches ([…]) above average plant canopy height. Control plants were sprayed in the same manner with the solvent blank. The treated plants and control plants were placed in a greenhouse as described above and watered by sub-irrigation to prevent wash-off of the test compounds. After approximately 3 weeks, the condition of the test plants, compared with that of the untreated plants, was determined visually and scored on a scale of 0 to 100 percent where 0 corresponds to no injury and 100 corresponds to complete kill. By applying the well-accepted probit analysis as described by J. Berkson in Journal of the […], 48, 565 (1953) and by D. Finney in “Probit Analysis” Cambridge University Press (1952) or by plotting the mean data and fitting a logarithmic curve to the portion of the data where there was a dose response using Microsoft Excel®, the above data can be used to calculate GR50 and GR90 values, which are defined as growth reduction factors that correspond to the effective dose of herbicide required to kill or control 50 percent or 90 percent, respectively, of a target plant.

## COC(=O)c1nc(-c2ccc(Cl)c(OC)c2F)c(F)c(N)c1OC [Compound 34]
ECHCO (Echinochloa colonum, junglerice), 4.38 g ae/ha
  Mean Visual Injury (%)-21 Days After Application ECHCO: 70%
ECHCO (Echinochloa colonum, junglerice), 8.75 g ae/ha
  Mean Visual Injury (%)-21 Days After Application ECHCO: 80%
ECHCO (Echinochloa colonum, junglerice), 17.5 g ae/ha
  Mean Visual Injury (%)-21 Days After Application ECHCO: 92%
ECHCO (Echinochloa colonum, junglerice), 35 g ae/ha
  Mean Visual Injury (%)-21 Days After Application ECHCO: 97%
ECHCO (Echinochloa colonum, junglerice), 70 g ae/ha
  Mean Visual Injury (%)-21 Days After Application ECHCO: 98%
ECHCO (Echinochloa colonum, junglerice), dose to kill or control 50 percent
  GR50 ECHCO: <4.38 g ae/ha
ECHCO (Echinochloa colonum, junglerice), dose to kill or control 90 percent
  GR90 ECHCO: 18.6 g ae/ha
LEFCH (Leptochloa chinensis, Chinese sprangletop), 4.38 g ae/ha
  Mean Visual Injury (%)-21 Days After Application LEFCH: 0%
LEFCH (Leptochloa chinensis, Chinese sprangletop), 8.75 g ae/ha
  Mean Visual Injury (%)-21 Days After Application LEFCH: 17%
LEFCH (Leptochloa chinensis, Chinese sprangletop), 17.5 g ae/ha
  Mean Visual Injury (%)-21 Days After Application LEFCH: 30%
LEFCH (Leptochloa chinensis, Chinese sprangletop), 35 g ae/ha
  Mean Visual Injury (%)-21 Days After Application LEFCH: 40%
LEFCH (Leptochloa chinensis, Chinese sprangletop), 70 g ae/ha
  Mean Visual Injury (%)-21 Days After Application LEFCH: 37%
LEFCH (Leptochloa chinensis, Chinese sprangletop), dose to kill or control 50 percent
  GR50 LEFCH: >70 g ae/ha
LEFCH (Leptochloa chinensis, Chinese sprangletop), dose to kill or control 90 percent
  GR90 LEFCH: >70 g ae/ha
ORYSA (Oryza sativa ‘Clearfield 171’, rice), 4.38 g ae/ha
  Mean Visual Injury (%)-21 Days After Application ORYSA ‘Clearfield 171’: 0%
ORYSA (Oryza sativa ‘Clearfield 171’, rice), 8.75 g ae/ha
  Mean Visual Injury (%)-21 Days After Application ORYSA ‘Clearfield 171’: 3%
ORYSA (Oryza sativa ‘Clearfield 171’, rice), 17.5 g ae/ha
  Mean Visual Injury (%)-21 Days After Application ORYSA ‘Clearfield 171’: 12%
ORYSA (Oryza sativa ‘Clearfield 171’, rice), 35 g ae/ha
  Mean Visual Injury (%)-21 Days After Application ORYSA ‘Clearfield 171’: 23%
ORYSA (Oryza sativa ‘Clearfield 171’, rice), 70 g ae/ha
  Mean Visual Injury (%)-21 Days After Application ORYSA ‘Clearfield 171’: 22%
ORYSA (Oryza sativa ‘Clearfield 171’, rice), dose to kill or control 50 percent
  GR50 ORYSA ‘Clearfield 171’: >70 g ae/ha
ORYSA (Oryza sativa ‘Clearfield 171’, rice), dose to kill or control 90 percent
  GR90 ORYSA ‘Clearfield 171’: >70 g ae/ha
ORYSA (Oryza sativa ‘Wells’, rice), 4.38 g ae/ha
  Mean Visual Injury (%)-21 Days After Application ORYSA ‘Wells’: 0%
ORYSA (Oryza sativa ‘Wells’, rice), 8.75 g ae/ha
  Mean Visual Injury (%)-21 Days After Application ORYSA ‘Wells’: 0%
ORYSA (Oryza sativa ‘Wells’, rice), 17.5 g ae/ha
  Mean Visual Injury (%)-21 Days After Application ORYSA ‘Wells’: 3%
ORYSA (Oryza sativa ‘Wells’, rice), 35 g ae/ha
  Mean Visual Injury (%)-21 Days After Application ORYSA ‘Wells’: 8%
ORYSA (Oryza sativa ‘Wells’, rice), 70 g ae/ha
  Mean Visual Injury (%)-21 Days After Application ORYSA ‘Wells’: 7%
ORYSA (Oryza sativa ‘Wells’, rice), dose to kill or control 50 percent
  GR50 ORYSA ‘Wells’: >70 g ae/ha
ORYSA (Oryza sativa ‘Wells’, rice), dose to kill or control 90 percent
  GR90 ORYSA ‘Wells’: >70 g ae/ha
SCPJU (Scirpus juncoides, Japanese bulrush), 4.38 g ae/ha
  Mean Visual Injury (%)-21 Days After Application SCPJU: 100%
SCPJU (Scirpus juncoides, Japanese bulrush), 8.75 g ae/ha
  Mean Visual Injury (%)-21 Days After Application SCPJU: 100%
SCPJU (Scirpus juncoides, Japanese bulrush), 17.5 g ae/ha
  Mean Visual Injury (%)-21 Days After Application SCPJU: 100%
SCPJU (Scirpus juncoides, Japanese bulrush), 35 g ae/ha
  Mean Visual Injury (%)-21 Days After Application SCPJU: 100%
SCPJU (Scirpus juncoides, Japanese bulrush), 70 g ae/ha
  Mean Visual Injury (%)-21 Days After Application SCPJU: 100%
SCPJU (Scirpus juncoides, Japanese bulrush), dose to kill or control 50 percent
  GR50 SCPJU: <4.38 g ae/ha
SCPJU (Scirpus juncoides, Japanese bulrush), dose to kill or control 90 percent
  GR90 SCPJU: <4.38 g ae/ha
SEBEX (Sesbania exaltata, hemp sesbania), 4.38 g ae/ha
  Mean Visual Injury (%)-21 Days After Application SEBEX: 100%
SEBEX (Sesbania exaltata, hemp sesbania), 8.75 g ae/ha
  Mean Visual Injury (%)-21 Days After Application SEBEX: 100%
SEBEX (Sesbania exaltata, hemp sesbania), 17.5 g ae/ha
  Mean Visual Injury (%)-21 Days After Application SEBEX: 100%
SEBEX (Sesbania exaltata, hemp sesbania), 35 g ae/ha
  Mean Visual Injury (%)-21 Days After Application SEBEX: 100%
SEBEX (Sesbania exaltata, hemp sesbania), 70 g ae/ha
  Mean Visual Injury (%)-21 Days After Application SEBEX: 100%
SEBEX (Sesbania exaltata, hemp sesbania), dose to kill or control 50 percent
  GR50 SEBEX: <4.38 g ae/ha
SEBEX (Sesbania exaltata, hemp sesbania), dose to kill or control 90 percent
  GR90 SEBEX: <4.38 g ae/ha

Source: patent US9518018B2, “3-alkoxy, thioalkyl and amino-4-amino-6-(substituted)picolinates and their use as herbicides” (Dow AgroSciences LLC, priority 2011, dated 2016)
